Experimental data from US8415312B2, “Compound which is a nystatin derivative” (Biosergen AS, priority 2007, dated 2013).
≈ marks a conversion by molar mass, not a printed value. Where “and” joins values, the source holds several entries; their conditions need not be identical. Equal entries are not always repeated.

Key:
[1] = tested on: Candida albicans ATCC 10231; test: Antifungal susceptibility study (2), MIC50 by OD490 growth; assay type: cell-based; conditions: 50% growth inhibition from regression curve, M19 medium without NaCl, 30° C.
Procedure: The anti-fungal activity of several of the nystatin derivatives was further investigated. […] The anti-fungal activity of a number of the nystatin derivatives was therefore determined in a method which is designed to be more sensitive.
The test organism used for the further testing of polyene macrolide bioactivity was Candida albicans ATCC 10231, grown in 120 μl of standard M19 medium without NaCl (with an inoculum of 1000 cfu per well) and 30 μl of diluted polyene macrolide samples. The antibiotics were diluted in MeOH in series ensuring a spectrum of concentrations which yielded results ranging from complete growth inhibition to no inhibition of the test organism. The test organism cultures with antibiotic dilutions were incubated in 96-well microtiter plates at 30° C. without shaking, and growth was measured as OD490 after 12, 14 and 16 hours on a SpectraMax Plus microtiter plate reader. OD was plotted against antibiotic concentration, and MIC50 was estimated from the regression curve at 50% growth inhibition.

[2] = tested on: mice (C57B1/6xDBA/2)F1 B6D2F1; conditions: single injection into tail vein, probit analysis
In short: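 Male B6D2F1 mice, 20-22 g, given one tail-vein injection of antibiotic suspended with sodium deoxycholate in phosphate buffer, within 1-1.5 h of preparation. Doses spanned 0% to 100% lethality with at least 3 intermediate doses, in randomized groups of 6 mice.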

[3] = tested on: Candida albicans (strain 14053 ATCC); test: In vivo antifungal activity, kidney burden in infected mice; conditions: day 5, individual mice
Procedure: Male mice of hybrids of first generation (C57B1/6xDBA/2)F1 B6D2F1, weight 20-22 g., received from the Central farm. “Kryukovo” of Russian Academies of Medical Science (RAMS) were used. Animals were maintained in a vivarium in plastic cages (with hardwood bedding in environmentally controlled conditions: 24±1° C., 12/12 hours light/dark cycle) on a standard diet of bricketed forages with easy access to drinking water (ad libitum). After a 2-week quarantine period, healthy animals were used in experimental work.
The solutions were prepared as follows: dry antibiotic substances (5 mg) were mixed with dry sodium deoxycholate (4.1 mg) in a sterile glass vial. 10 mL of phosphate buffer (NaH2PO4—1.59 g; Na2HPO4—0.96 g; H2O—to 100 mL) was added to the mix and the suspension was immediately subjected to vigorous shaking for 10 minutes until homogeneous suspensions were formed.
Animals were infected intravenously with Candida albicans culture at a dose of 1.0 million CFU/mouse (volume 0.1 mL). 30 minutes after infection, the antifungal agents were introduced intravenously into the mice at various doses in a volume of 0.2 mL (at a rate of 0.2 mL/30 second). Each dose was administered daily for four days including the day of infection (0, 1, 2 and 3 days).
As a control, there was a group of untreated mice (infected in the same way with Candida albicans). Also there was a “placebo” group of non-infected animals which were intravenously administered (in the same volume as antifungal agent preparations) 0.2 mL of solvent (phosphatic buffer +5% glucose (1:1)).
On the 5th day of experiment, mice were weighed and euthanized (killed) by a cervical dislocation. Then, in sterile conditions, the Candida albicans burden of each mouse was determined by counting of viable homogenates from the kidneys. The kidneys were removed aseptically and weighed, then pounded in porcelain mortars with sterile corundum. Dilutions of the resulting suspensions were prepared and sowed on Petri dishes with agar Saburo, incubated for 24 hours at a temperature of 35° C. Developed colonies of Candida albicans were then counted and their quantity calculated on the basis of 1 g of kidney tissue.

[4] = tested on: Candida albicans ATCC 14053; test: Antifungal susceptibility study (1), broth microdilution MIC; assay type: cell-based; conditions: lowest concentration preventing any visible growth, read at 48 hours, 35° C., RPMI 1640 pH 7.0
In short: (§1)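 Broth microdilution in test medium at pH 7.0 with two-fold compound dilutions (DMSO stocks diluted 50-fold into medium), inoculated with freshly grown yeast cultures. Plates were incubated without agitation at 35° C. for C. albicans or 25° C. for C. humicolus. MIC was taken as the concentration with no visible growth, read at 48 hours.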

[5] = tested on: Cryptococcus humicolus ATCC 9949; test: as above; assay type: cell-based; conditions: lowest concentration preventing any visible growth, read at 48 hours, 25° C., RPMI 1640 pH 7.0
In short: as §1

[6] = 0.08 mg/kg × 4/24 i.v., colonies per 1 g of kidney tissue
[7] = 0.8 mg/kg × 4/24 i.v., colonies per 1 g of kidney tissue
[8] = 2.5 mg/kg × 4/24 i.v., colonies per 1 g of kidney tissue
[9] = 5 mg/kg × 4/24 i.v., Candida albicans colonies per 1 g of kidney tissue

Row | SMILES | MIC50 [1] [µg/mL] | LD50 [2] [mg/kg] | MTD [2] [mg/kg] | Number of Colonies ([3]; 0.08 mg/kg × 4/24 i.v., colonies per 1 g of kidney tissue, listed as Amp B) | Number of Colonies ([3]; 0.8 mg/kg × 4/24 i.v., colonies per 1 g of kidney tissue, listed as Amp B) | Number of Colonies ([3]; 2.5 mg/kg × 4/24 i.v., colonies per 1 g of kidney tissue, listed as Amp B) | MIC Candida albicans ATCC 14053 [4] [µg/mL] | MIC Cryptococcus humicolus ATCC 9949 [5] [µg/mL] | Number of Colonies [3, 6] | Number of Colonies [3, 7] | Number of Colonies [3, 8] | Number of Colonies [3, 9]
1 | C[C@@H]1[C@H](O)[C@@H](C)/C=C/C=C/C=C/C=C/C=C/C=C/C=C/[C@H](O[C@@H]2O[C@H](C)[C@@H](O)[C@H](N)[C@@H]2O)C[C@@H]2O[C@](O)(C[C@@H](O)C[C@@H](O)[C@H](O)CC[C@@H](O)C[C@@H](O)CC(=O)O[C@H]1C)C[C@H](O)[C@H]2C(=O)O [Amphotericin B, reference compound] | 0.12 (≈ 0.13 µM) | 2.8 | 2.01 | 1.8 × 10^4 and 2.6 × 10^4 and 3.4 × 10^4 | 2 × 10^3 and 6 × 10^3 and 4 × 10^3 | 1.0 × 10^3 and 2.2 × 10^2 and 2.8 × 10^2 | 1 (≈ 1.08 µM) | 1 (≈ 1.08 µM) | – | – | – | –
2 | CC1C=CC=CC=CC=CC=CC=CC=CC(OC2OC(C)C(O)C(N)C2O)CC2OC(O)(CC(O)C(O)CCC(O)CC(O)CC(O)CC(=O)OC(C)C(C)C1O)CC(O)C2C (stereo not shown) [Compound 1] | 0.07 (≈ 0.0783 µM) | 15.4 | 7.8 | – | – | – | 1 (≈ 1.12 µM) | 1 (≈ 1.12 µM) | 2.4 × 10^4 (2×) and 2.8 × 10^4 | 2.5 × 10^3 and 1.2 × 10^3 and 5.0 × 10^3 | 2.0 × 10^1 (2×) and 1.0 × 10^1 | 1.0 × 10^1 (2×) and 0
3 | CC1C=CC=CC=CC=CC=CC=CC=CC(OC2OC(C)C(O)C(N)C2O)CC2OC(O)(CC(O)C(O)CCC(O)CC(O)CC(O)CC(=O)OC(C)C(C)C1O)CC(O)C2C(=O)NCCCN(C)C (stereo not shown) [Compound 11, S44HP DMAP Amide] | 0.12 (≈ 0.119 µM) | 16.4 | 11.9 | – | – | – | 1 (≈ 0.992 µM) | 1 (≈ 0.992 µM) | 3.0 × 10^4 and 2.7 × 10^4 and 1.5 × 10^4 | 1.2 × 10^3 and 3.0 × 10^3 and 2.5 × 10^3 | <10^1 and 1.0 × 10^1 (2×) | 0 (2×) and <10^1
4 | CC1C=CC=CC=CC=CC=CC=CC=CC(OC2OC(C)C(O)C(N)C2O)CC2OC(O)(CC(O)C(O)CCC(O)CC(O)CC(O)CC(=O)OC(C)C(C)C1O)CC(O)C2C.NC(CCC(=O)O)C(=O)O [Compound 29, Compound 1 L-glutamate] | – | 17.8 | 11.0 | – | – | – | 1 | 1 | – | – | – | –
5 | CC1O[C@@H](O[C@H]2/C=C/C=C/C=C/C=C/C=C/C=C/C=C/[C@H](C)[C@@H](O)[C@@H](C)[C@H](C)OC(=O)C[C@H](O)C[C@H](O)C[C@H](O)CC[C@@H](O)[C@H](O)C[C@]3(O)C[C@H](O)[C@@H](C)[C@H](C2)O3)[C@H](O)C(NC(=O)[C@@H](N)CCCCN)[C@@H]1O (stereo partly drawn) [Compound 51, N-L-Lysyl-Compound 1] | – | 5.3 | 4.48 | – | – | – | 1 (≈ 0.978 µM) | 1 (≈ 0.978 µM) | – | – | – | –
